Results published in patent US9956262B2, “Use of a bacterium isolated from the genus Pseudoalteromonas, cyclolipopeptides and uses thereof” (priority 2013, dated 2018).
Values after ≈ are worked out from the molar mass of the structure shown. Where two headings read alike, the source gives them in different places.

Key:
[1] = system: strain hCg-6; assay: Antibiotic sensitivity of the strain hCg-6; format: cell-based, Pseudoalteromonas hCg-6; design: key to Sensitive to: +: Positive; −: negative; f: slight reaction
[2] = system: collection of strains of Vibrio splendidus isolated from oysters; assay: MIC in liquid medium on a collection of Vibrio splendidus strains isolated from oysters; format: cell-based; conditions: collection of V. splendidus strains
Procedure: The cyclolipopeptide no. 2 was tested on a collection of strains of Vibrio splendidus isolated from oysters. It has minimum inhibitory concentrations from 1.56 to 50 μM. The MICs were defined in a liquid medium by using the procedure of Wiegand, Hilpert, and Hancock 2008.

[3] = system: E. coli ML35; assay: MIC in liquid medium; format: cell-based; conditions: 24 h
Procedure: (§1) The minimum inhibitory concentration (MIC) of the compounds nos. 1, 2, 3, 5, 7 and 8 was evaluated in a liquid medium following the procedure of Wiegand, Hilpert, and Hancock 2008. The spectrum of the target bacteria was extended to certain human pathogens such as the bacteria Salmonella enterica, a clinical strain of Escherichia coli having a beta-3-lactamase activity with an extended spectrum and Pseudomonas aeruginosa. After 24 h of incubation at an optimum temperature, the MICs are evaluated visually.

[4] = system: E. coli β résistante P7 (clinical strain); assay: MIC in liquid medium; format: cell-based; conditions: 24 h
Procedure: as §1

[5] = system: S. enterica CIP 8297; assay: MIC in liquid medium; format: cell-based; conditions: 24 h
Procedure: as §1

[6] = system: E. coli SBS363; assay: MIC in liquid medium; format: cell-based; conditions: 24 h
Procedure: as §1

[7] = system: Pseudomonas aeruginosa ATCC 27853; assay: MIC in liquid medium; format: cell-based; conditions: 24 h
Procedure: as §1

[8] = system: A. caviae CIP 7616; assay: MIC in liquid medium; format: cell-based; conditions: 24 h
Procedure: as §1

[9] = system: V. splendidus LGP 32; assay: MIC in liquid medium; format: cell-based; conditions: 24 h
Procedure: as §1

[10] = system: Y. ruckeri ATCC 29473; assay: MIC in liquid medium; format: cell-based; conditions: 24 h
Procedure: as §1

[11] = system: V. harveyi ORM4; assay: MIC in liquid medium; format: cell-based; conditions: 24 h
Procedure: as §1

[12] = system: A. hydrophila CIP 7614; assay: MIC in liquid medium; format: cell-based; conditions: 24 h
Procedure: as §1

## gentamycin
[1]
  resistance/sensitivity of the strain hCg-6: sensitive

## CC=C1NC(=O)C(NC(=O)CC(O)CCCCCCC)C(O)CNC(=O)C(C(O)CN)NC(=O)C(C(O)CN)NC(=O)C(CCCNC(=N)N)NC(=O)C(CC(C)CC)NC(=O)C(CCN)NC1=O (stereo not shown) [cyclolipopeptide 2]
[2]
  minimum inhibitory concentrations: 1.56 to 50 µM
[3]
  MIC: 35 µM (≈ 34.5 µg/mL)
[4]
  MIC: 8.8 µM (≈ 8.67 µg/mL)
[5]
  MIC: 1.4 µM (≈ 1.38 µg/mL)
[6]
  MIC: 0.1 µM (≈ 0.0985 µg/mL)
[7]
  MIC: 35.2 µM (≈ 34.7 µg/mL)
[8]
  MIC: 17.6 µM (≈ 17.3 µg/mL)
[9]
  MIC: 4.4 µM (≈ 4.33 µg/mL)
[10]
  MIC: 1.1 µM (≈ 1.08 µg/mL)

## CO/N=C(\C(=O)N[C@@H]1C(=O)N2C(C(=O)[O-])=C(C[n+]3cccc4c3CCCC4)CS[C@H]12)c1csc(N)n1 [cefquinom]
[1]
  resistance/sensitivity of the strain hCg-6: sensitive

## CC1(C)S[C@@H]2[C@H](NC(=O)[C@H](N)c3ccc(O)cc3)C(=O)N2[C@H]1C(=O)O [amoxicillin]
[1]
  resistance/sensitivity of the strain hCg-6: sensitive

## polymyxin
[1]; 50 μg
  resistance/sensitivity of the strain hCg-6: resistant
[1]; 300 ED
  Sensitive to: −

## CC=C1NC(=O)C(NC(=O)CCCCCCC)C(O)CNC(=O)C(C(O)CN)NC(=O)C(C(O)CN)NC(=O)C(CCCNC(=N)N)NC(=O)C(CC(C)CC)NC(=O)C(CCN)NC1=O (stereo not shown) [cyclolipopeptide 3]
[3]
  MIC: 100 µM (≈ 94.1 µg/mL)
[5]
  MIC: 12.5 µM (≈ 11.8 µg/mL)
[6]
  MIC: 50 µM (≈ 47.1 µg/mL)
[9]
  MIC: 50 µM (≈ 47.1 µg/mL)
[10]
  MIC: 50 µM (≈ 47.1 µg/mL)
[11]
  MIC: 50 µM (≈ 47.1 µg/mL)

## Polymyxin B [reference compound]
[3]
  MIC: 3.1 µM
[4]
  MIC: 1.6 µM
[5]
  MIC: 0.8 µM
[6]
  MIC: 0.2 µM
[7]
  MIC: 1.6 µM
[8]
  MIC: 3.1 µM
[9]
  MIC: 1.6 µM
[10]
  MIC: 0.4 µM
[12]
  MIC: 0.8 µM
[11]
  MIC: 25 µM

## CC=C1NC(=O)C(NC(=O)CCCCCCCC)C(O)CNC(=O)C(C(O)CN)NC(=O)C(C(O)CN)NC(=O)C(CCCNC(=N)N)NC(=O)C(CC(C)CC)NC(=O)C(CCN)NC1=O (stereo not shown) [cyclolipopeptide 5]
[3]
  MIC: 50 µM (≈ 47.8 µg/mL)
[5]
  MIC: 6.3 µM (≈ 6.02 µg/mL)
[6]
  MIC: 25 µM (≈ 23.9 µg/mL)
[9]
  MIC: 6.3 µM (≈ 6.02 µg/mL)
[10]
  MIC: 6.3 µM (≈ 6.02 µg/mL)
[12]
  MIC: 25 µM (≈ 23.9 µg/mL)
[11]
  MIC: 6.3 µM (≈ 6.02 µg/mL)

## CCN1CCN(c2cc3c(cc2F)c(=O)c(C(=O)O)cn3C2CC2)CC1 [enrofloxacin]
[1]
  resistance/sensitivity of the strain hCg-6: sensitive

## CC1=C(C(=O)O)N2C(=O)[C@@H](NC(=O)[C@H](N)c3ccccc3)[C@H]2SC1 [cephalexin]
[1]
  resistance/sensitivity of the strain hCg-6: resistant

## CCn1cc(C(=O)O)c(=O)c2cc3c(cc21)OCO3 [oxolinic acid]
[1]
  resistance/sensitivity of the strain hCg-6: sensitive
